Measured values from US20240150321A1, “PYRAZOLYLSULFONAMIDE COMPOUNDS AND THEIR USE IN THERAPY” (HOTSPOT THERAPEUTICS, INC., priority 2022, published 2024).

Assays:
[1] = target: Avi-tagged FL MALT-1 (Homo sapiens (Human), UniProt Q9UDY8); experiment: MALT-1 Fluorogenic Peptide Cleavage Assay (MALT1 inhibition assay); assay type: biochemical; conditions: Ac-LRSR-AMC peptide substrate, 30 min pre-incubation, 90 min reaction at room temperature
Procedure, shortened: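 Cleavage of Ac-LRSR-AMC, read as fluorescence at 342/441 nm after 90 min at room temperature, with substrate working stocks of 50 μM (Km) or 280 μM (10×Km). Enzyme, Avi-tagged full-length MALT-1 (40 nM stock), was first pre-incubated 30 min with compound in citrate/HEPES pH 6.89 buffer with TCEP, EDTA, CHAPS and 2% DMSO; IC50 fitted from normalised % inhibition.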

[2] = tested on: NF-kB reporter in Jurkat cells; experiment: NF-kB reporter assay in Jurkat cells stimulated with aCD3/aCD28/PMA; assay type: cell-based; conditions: Homo sapiens; Jurkat cells, 1 hr compound pre-incubation, aCD3/aCD28/PMA stimulation 4 hr, One-Glo readout; read-out: NF-kB Reporter Assay IC50
Procedure, shortened: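 Luminescence (One-Glo) from the NF-kB reporter yielded IC50 values. Stimulation lasted 4 h at 37° C with aCD3, aCD28 and PMA (final 5, 5 and 0.03 […]), after 1 h compound pre-exposure of 25,000 Jurkat cells per well in serum-free RPMI.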

Avi-tagged FL MALT-1, sequence (Q9UDY8 whole entry): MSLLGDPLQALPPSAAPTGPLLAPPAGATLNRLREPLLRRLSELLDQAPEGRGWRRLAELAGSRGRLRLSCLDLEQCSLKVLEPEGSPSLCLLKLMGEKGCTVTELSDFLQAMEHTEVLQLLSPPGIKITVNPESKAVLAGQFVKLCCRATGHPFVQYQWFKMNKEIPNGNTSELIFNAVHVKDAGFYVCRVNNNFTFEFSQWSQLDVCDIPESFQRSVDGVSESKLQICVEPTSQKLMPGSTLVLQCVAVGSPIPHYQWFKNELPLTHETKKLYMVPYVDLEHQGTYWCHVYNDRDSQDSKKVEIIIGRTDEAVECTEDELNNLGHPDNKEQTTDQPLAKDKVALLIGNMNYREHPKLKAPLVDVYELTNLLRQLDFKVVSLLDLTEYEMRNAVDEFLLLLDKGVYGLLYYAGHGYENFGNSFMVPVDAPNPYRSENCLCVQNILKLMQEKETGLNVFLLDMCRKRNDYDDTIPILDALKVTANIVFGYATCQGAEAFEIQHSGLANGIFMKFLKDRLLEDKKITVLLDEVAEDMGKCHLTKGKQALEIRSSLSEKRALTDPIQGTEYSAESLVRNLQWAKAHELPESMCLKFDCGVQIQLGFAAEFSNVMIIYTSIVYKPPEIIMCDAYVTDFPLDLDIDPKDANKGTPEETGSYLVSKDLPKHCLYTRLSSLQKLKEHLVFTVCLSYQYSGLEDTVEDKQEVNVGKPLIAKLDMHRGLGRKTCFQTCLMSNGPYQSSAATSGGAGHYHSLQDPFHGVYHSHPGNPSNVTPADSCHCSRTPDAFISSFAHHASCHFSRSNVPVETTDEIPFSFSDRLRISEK

Row | SMILES | IC50 [1] [µM] | IC50 [2] [µM]
1 | COc1ccc2cn(C)nc2c1NS(=O)(=O)c1cnn(-c2ccnc(C(F)(F)F)c2)c1 [Compound I-50, N-(6-Methoxy-2-Methyl-2H-Indazol-7-yl)-1-(2-(Trifluoromethyl)Pyridin-4-yl)-1H-Pyrazole-4-Sulfonamide] | 0.4 to 1 | > 2.5
2 | Cc1n[nH]c2cccc(NS(=O)(=O)c3cnn(-c4ccnc(C(F)(F)F)c4)c3)c12 [Compound I-51, N-(3-Methyl-1H-Indazol-4-yl)-1-(2-(Trifluoromethyl)Pyridin-4-yl)-1H-Pyrazole-4-Sulfonamide] | > 2.5 | > 2.5
3 | COc1ccc2nnn(C)c2c1NS(=O)(=O)c1cnn(-c2ccnc(C(F)(F)F)c2)c1 [Compound I-52] | > 2.5 | 1 to 2.5
4 | COc1cc(NS(=O)(=O)c2cnn(-c3ccnc(C(F)(F)F)c3)c2)c2c(cnn2C)c1 [Compound I-58, N-(5-Methoxy-1-Methyl-1H-Indazol-7-yl)-1-(2-(Trifluoromethyl)Pyridin-4-yl)-1H-Pyrazole-4-Sulfonamide] | > 2.5 | > 2.5
5 | CCc1ccc2cnn(C)c2c1NS(=O)(=O)c1cnn(-c2ccnc(OC(F)(F)F)c2)c1 [Compound I-61, N-(6-Ethyl-1-Methyl-1H-Indazol-7-yl)-1-(2-(Trifluoromethoxy) Pyridin-4-yl)-1H-Pyrazole-4-Sulfonamide] | 1 to 2.5 | 1 to 2.5
6 | Cc1ccnc(-n2cc(S(=O)(=O)Nc3cccc4[nH]nc(C)c34)cn2)c1 [Compound I-63, N-(3-Methyl-1H-Indazol-4-yl)-1-(4-Methylpyridin-2-yl)-1H-Pyrazole-4-Sulfonamide] | > 2.5 | < 0.4
7 | Cc1n[nH]c2cccc(N(C)S(=O)(=O)c3cnn(-c4ccnc(C(F)(F)F)c4)c3)c12 [Compound I-64, N-Methyl-N-(3-Methyl-1H-Indazol-4-yl)-1-(2-(Trifluoromethyl)Pyridin-4-yl)-1H-Pyrazole-4-Sulfonamide] | 1 to 2.5 | > 2.5
8 | Cc1n[nH]c2cccc(N(C)S(=O)(=O)c3cnn(-c4cc(C(F)(F)F)ccn4)c3)c12 [Compound I-65, N-Methyl-N-(3-Methyl-1H-Indazol-4-yl)-1-(4-(Trifluoromethyl)Pyridin-2-yl)-1H-Pyrazole-4-Sulfonamide] | 0.4 to 1 | 0.4 to 1
9 | Cc1ccnc(-n2cc(S(=O)(=O)N(C)c3cccc4[nH]nc(C)c34)cn2)c1 [Compound I-66, N-Methyl-N-(3-Methyl-1H-Indazol-4-yl)-1-(4-Methylpyridin-2-yl)-1H-Pyrazole-4-Sulfonamide] | > 2.5 | > 2.5
10 | Cc1n[nH]c2cccc(NS(=O)(=O)c3cnn(-c4cc(C(F)(F)F)ccn4)c3)c12 [Compound I-73, N-(3-Methyl-1H-Indazol-4-yl)-1-(4-(Trifluoromethyl)Pyridin-2-yl)-1H-Pyrazole-4-Sulfonamide] | 1 to 2.5 | < 0.4
11 | Cn1ncc2cccc(NS(=O)(=O)c3cnn(-c4ccnc(C5CC5)c4)c3)c21 [Compound I-75, 1-(2-Cyclopropylpyridin-4-yl)-N-(1-Methyl-1H-Indazol-7-yl)-1H-Pyrazole-4-Sulfonamide] | > 2.5 | 0.4 to 1
12 | Cn1ncc2cccc(NS(=O)(=O)c3cnn(-c4cc(C5CC5)ccn4)c3)c21 [Compound I-76, 1-(4-Cyclopropylpyridin-2-yl)-N-(1-Methylindazol-7-yl)Pyrazole-4-Sulfonamide] | 1 to 2.5 | < 0.4
13 | COc1ccc2cnn(C)c2c1NS(=O)(=O)c1cnn(-c2ccnc(C3CC3)c2)c1 [Compound I-77, 1-(2-Cyclopropylpyridin-4-yl)-N-(6-Methoxy-1-Methyl-1H-Indazol-7-yl)-1H-Pyrazole-4-Sulfonamide] | ≤ 0.4 | < 0.4
14 | CCc1ccc2[nH]nc(C)c2c1N(C)S(=O)(=O)c1cnn(-c2cc(C)ccn2)c1 [Compound I-78, N-(5-Ethyl-3-Methyl-1H-Indazol-4-yl)-N-Methyl-1-(4-Methylpyridin-2-yl)Pyrazole-4-Sulfonamide] | ≤ 0.4 | 0.4 to 1
15 | COc1ccc2[nH]nc(C)c2c1NS(=O)(=O)c1cnn(-c2ccnc(C(F)(F)F)c2)c1 [Compound I-79, N-(5-Methoxy-3-Methyl-1H-Indazol-4-yl)-1-(2-(Trifluoromethyl)Pyridin-4-yl)-1H-Pyrazole-4-Sulfonamide] | ≤ 0.4 | < 0.4
16 | COc1ccc2[nH]nc(C)c2c1N(C)S(=O)(=O)c1cnn(-c2ccnc(C(F)(F)F)c2)c1 [Compound I-80, N-(5-methoxy-3-Methyl-1H-Indazol-4-yl)-N-Methyl-1-(2-(Trifluoromethyl)Pyridin-4-yl)-1H-Pyrazole-4-Sulfonamide] | ≤ 0.4 | 1 to 2.5
17 | COc1ccc2[nH]nc(C)c2c1NS(=O)(=O)c1cnn(-c2cc(C(F)(F)F)ccn2)c1 [Compound I-81, N-(5-Methoxy-3-Methyl-1H-Indazol-4-yl)-1-(4-(Trifluoromethyl)Pyridin-2-yl)-1H-Pyrazole-4-Sulfonamide] | ≤ 0.4 | < 0.4

Other lines, results leading:

Row | IC50 [1] [µM] | IC50 [2] [µM] | SMILES
18 | ≤ 0.4 | < 0.4 | Cn1ncc2ccc(C3CC3)c(NS(=O)(=O)c3cnn(-c4cc(C(F)(F)F)ncn4)c3)c21 [Compound I-53, N-(6-Cyclopropyl-1-Methyl-1H-Indazol-7-yl)-1-(6-(Trifluoromethyl)Pyrimidin-4-yl)-1H-Pyrazole-4-Sulfonamide]
19 | ≤ 0.4 | < 0.4 | COc1ccc2cnn(C)c2c1NS(=O)(=O)c1cnn(-c2cc(Cl)ccn2)c1 [Compound I-54]
20 | ≤ 0.4 | 1 to 2.5 | Cn1ncc2ccc(OC3CC3)c(NS(=O)(=O)c3cnn(-c4ccnc(C(F)(F)F)c4)c3)c21 [Compound I-55, N-(6-Cyclopropoxy-1-Methyl-1H-Indazol-7-yl)-1-(2-(Trifluoromethyl)Pyridin-4-yl)-1H-Pyrazole-4-Sulfonamide]
21 | ≤ 0.4 | < 0.4 | CCc1ccc2cnn(C)c2c1NS(=O)(=O)c1cnn(-c2cc(C3CC3)ccn2)c1 [Compound I-56, 1-(4-Cyclopropylpyridin-2-yl)-N-(6-Ethyl-1-Methyl-1H-Indazol-7-yl)-1H-Pyrazole-4-Sulfonamide]
22 | ≤ 0.4 | < 0.4 | COc1ccc2cnn(C)c2c1NS(=O)(=O)c1cnn(-c2cc(C3CC3)ccn2)c1 [Compound I-57, 1-(4-Cyclopropylpyridin-2-yl)-N-(6-Methoxy-1-Methyl-1H-Indazol-7-yl)-1H-Pyrazole-4-Sulfonamide]
23 | ≤ 0.4 | 0.4 to 1 | Cc1ccc2cnn(C)c2c1NS(=O)(=O)c1cnn(-c2ccnc(C(F)(F)F)c2)c1 [Compound I-59, N-(1,6-Dimethyl-1H-Indazol-7-yl)-1-(2-(Trifluoromethyl)Pyridin-4-yl)-1H-Pyrazole-4-Sulfonamide]
24 | ≤ 0.4 | < 0.4 | Cc1ccc2cnn(C)c2c1NS(=O)(=O)c1cnn(-c2cc(C(F)(F)F)ccn2)c1 [Compound I-60, N-(1,6-Dimethyl-1H-Indazol-7-yl)-1-(4-(Trifluoromethyl) Pyridin-2-yl)-1H-Pyrazole-4-Sulfonamide]
25 | ≤ 0.4 | 0.4 to 1 | CCc1ccc2[nH]nc(C)c2c1N(C)S(=O)(=O)c1cnn(-c2ccnc(C(F)(F)F)c2)c1 [Compound I-62, N-(5-Ethyl-3-Methyl-1H-Indazol-4-yl)-N-Methyl-1-(2-(Trifluoromethyl)Pyridin-4-yl)-1H-Pyrazole-4-Sulfonamide]
26 | ≤ 0.4 | < 0.4 | Cc1ccc2[nH]nc(C)c2c1NS(=O)(=O)c1cnn(-c2cc(C(F)(F)F)ccn2)c1 [Compound I-67]
27 | ≤ 0.4 | < 0.4 | C=C(CO)c1ccnc(-n2cc(S(=O)(=O)Nc3c(OC)ccc4cnn(C)c34)cn2)c1 [Compound I-68, 1-(4-(3-Hydroxyprop-1-EN-2-yl)Pyridin-2-yl)-N-(6-Methoxy-1-Methyl-1H-Indazol-7-yl)-1H-Pyrazole-4-Sulfonamide]
28 | ≤ 0.4 | < 0.4 | COc1ccc2cnn(C)c2c1NS(=O)(=O)c1cnn(-c2cc(C3(F)COC3)ccn2)c1 [Compound I-69, 1-(4-(3-Fluorooxetan-3-yl)Pyridin-2-yl)-N-(6-Methoxy-1-Methyl-1H-Indazol-7-yl)-1H-Pyrazole-4-Sulfonamide]
29 | ≤ 0.4 | < 0.4 | [2H]C([2H])([2H])Oc1ccc2cnn(C)c2c1NS(=O)(=O)c1cnn(-c2cc(C(F)(F)F)ccn2)c1 [Compound I-70, N-(6-(Methoxy-D3)-1-Methyl-1H-Indazol-7-yl)-1-(4-(Trifluoromethyl)Pyridin-2-yl)-1H-Pyrazole-4-Sulfonamide]
30 | ≤ 0.4 | < 0.4 | [2H]C([2H])([2H])c1ccc2cnn(C)c2c1NS(=O)(=O)c1cnn(-c2cc(C(F)(F)F)ccn2)c1 [Compound I-71, N-(1-Methyl-6-(Methyl-D3)-1H-Indazol-7-yl)-1-(4-(Trifluoromethyl)Pyridin-2-yl)-1H-Pyrazole-4-Sulfonamide]
31 | ≤ 0.4 | < 0.4 | COc1ccc2cnn(C)c2c1NS(=O)(=O)c1cnn(-c2cc(C(F)(F)F)ccn2)c1 [Compound I-72, N-(6-Methoxy-1-(Methyl-D3)-1H-Indazol-7-yl)-1-(4-(Trifluoromethyl)Pyridin-2-yl)-1H-Pyrazole-4-Sulfonamide]
32 | ≤ 0.4 | 1 to 2.5 | Cc1ccc2[nH]nc(C)c2c1NS(=O)(=O)c1cnn(-c2ccnc(C(F)(F)F)c2)c1 [Compound I-74, N-(3,5-Dimethyl-1H-Indazol-4-yl)-1-(2-(Trifluoromethyl)Pyridin-4-yl)-1H-Pyrazole-4-Sulfonamide]
